Among the data in patent EP0629633A2, “Dinucleotide analogues, intermediates therefor and oligonucleotides derived therefrom” (CIBA-GEIGY AG, priority 1993, dated 1994) are IC50 values, retold here.

Assay [1] relates to herpes simplex virus type 2(HSV-2) (strain HG52). Put plainly: Antiviral plaque reduction assay, HSV-2. Format: cell-based. The following applies: Human alphaherpesvirus 2; HSV-2, Vero cells, plaque numbers after 2 or 3 days. The method, then:
(§1) Compound 34 is tested for antiviral activity against herpes simplex virus type 1(HSV-1) (strain 17i) and herpes simplex virus type 2(HSV-2) (strain HG52) in vitro. Aqueous solutions of the compounds are prepared at concentrations between 10mM and […]. The solutions are stored at -70°C after preparation and thawed prior to use in the antiviral assays. After thawing, the solutions are diluted to the appropriate concentration in the cell-culture medium without prior filtration.
(§2) In a procedure similar to that described by Tyms etal, J. Antimicrob. Chemother, 8,65-72 (1981), cell monolayers are infected with 20-200 plaque forming units and after virus adsorption the inoculum is replaced by maintenance medium containing different concentrations of the compound under investigation. Virus spread is prevented by the incorporation of 0.5% low gelling temperature agarose. At the end of a set period (2 or 3 days) monolayers are fixed, stained with methylene blue and plaque numbers determined.

For assay [2], the system named is herpes simplex virus type 1(HSV-1) (strain 17i). Put plainly: Antiviral plaque reduction assay, HSV-1. The class given is cell-based. Conditions: Human alphaherpesvirus 1; HSV-1, Vero cells, plaque numbers after 2 or 3 days. The method, then: as §1, §2

In general, IC50 refers to the concentration that inhibits the measured activity by half. Read a high IC50 as weaker potency in that assay. Regarding `Cc1cn(C2CC(O)C(CCP(=O)(c3ccccc3)C(O)C3CC(n4cc(C)c(=O)[nH]c4=O)OC3CO[Si](c3ccccc3)(c3ccccc3)C(C)(C)C)O2)c(=O)[nH]c1=O` (centres unmarked) [Compound 34], the IC50 in assay [1] amounted to 3.8 µM; in assay [2], 2.6 µM.
